Assay results taken from US8399440B2, “Disease modifying anti-arthritic activity of 2-methoxyestradiol” (EntreMed, Inc., priority 2006, dated 2013).
pIC50: −log10 of the molar value.

Key:
[1] = test system: Arthrogen Collagen MAb-Induced Arthritis; assay: Arthrogen collagen MAb-induced arthritis (Arthrogen-CIA model of RA); format: in vivo, Mouse (Balb/C)
estrogen receptor α = target: T1, estrogen receptor α (Homo sapiens, UniProt P03372); conditions: LaVallee et al. 2002; cited from earlier work
T1 sequence (P03372 1-595): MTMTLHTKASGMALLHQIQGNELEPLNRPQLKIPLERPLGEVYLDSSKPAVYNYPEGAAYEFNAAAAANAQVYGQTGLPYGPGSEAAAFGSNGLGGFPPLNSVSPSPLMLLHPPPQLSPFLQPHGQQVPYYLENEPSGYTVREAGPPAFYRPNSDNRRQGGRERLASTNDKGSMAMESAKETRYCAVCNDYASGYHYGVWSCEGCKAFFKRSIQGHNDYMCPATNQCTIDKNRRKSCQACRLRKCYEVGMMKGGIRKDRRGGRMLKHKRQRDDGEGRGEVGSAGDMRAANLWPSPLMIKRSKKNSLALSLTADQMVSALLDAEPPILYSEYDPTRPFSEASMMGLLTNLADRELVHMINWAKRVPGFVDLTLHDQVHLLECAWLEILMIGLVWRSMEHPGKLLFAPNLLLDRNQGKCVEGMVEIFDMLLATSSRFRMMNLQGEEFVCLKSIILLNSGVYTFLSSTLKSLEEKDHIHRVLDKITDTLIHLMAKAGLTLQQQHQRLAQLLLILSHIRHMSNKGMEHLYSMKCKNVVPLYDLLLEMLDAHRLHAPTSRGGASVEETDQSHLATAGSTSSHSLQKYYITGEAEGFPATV

[2] = test system: Adjuvant-Induced Arthritis (Adoptive Transfer Model); assay: Adjuvant-induced arthritis, adoptive transfer model; format: in vivo, Rat (Lewis); conditions: Dalhousie Study #2; 3, 30 mg/kg/d SC
[3] = test system: joint synovium and articular cartilage; assay: Joint histology and cartilage damage (H&E, safranin O); format: in vivo, Rat (Lewis)
Protocol: Tissue samples, including joints, were fixed in 10% phosphate-buffered formalin or AFA fixative ([…], 2% formalin, 5% glacial acetic acid, 20% water), the latter for immunostaining. Samples were then decalcified in formic or acetic acid and paraffin embedded. Sections (5 μm) were stained with hematoxylin-eosin (H&E) using routine techniques. To stain cartilage proteoglycan, separate sections were stained with safranin O (Difco, Detroit, Mich.) for 1 min. as described previously (Issekutz, (2001). To assess microvessel density in the synovium, rabbit anti-mouse laminin polyclonal IgG antibody (Cedarlane Laboratories Limited, Homby, ON) was used to outline vessels, with detection using biotinylated goat anti-rabbit IgG antibody and avidin-biotin complexed with HRPO according to manufacturer's recommendations (Vectastain Elite ABC kit; Vector Laboratories Canada Inc., Burlington, ON).
Even by the H&E staining the cartilage damage is visible on the articular surfaces and margins. This is more profoundly illustrated by the safranin O staining with marked focal proteoglycan loss and fragmentation.

[4] = test system: Adjuvant-Induced Arthritis; assay: Adjuvant arthritis, clinical arthritis severity; format: in vivo, Rat (Lewis); conditions: for arthritis severity (clinical score) by day 14, mean: vehicle reached score 11
estrogen receptor β = estrogen receptor β (Homo sapiens, UniProt Q92731); conditions: LaVallee et al. 2002; cited from earlier work
Chain of estrogen receptor β (Q92731 whole entry): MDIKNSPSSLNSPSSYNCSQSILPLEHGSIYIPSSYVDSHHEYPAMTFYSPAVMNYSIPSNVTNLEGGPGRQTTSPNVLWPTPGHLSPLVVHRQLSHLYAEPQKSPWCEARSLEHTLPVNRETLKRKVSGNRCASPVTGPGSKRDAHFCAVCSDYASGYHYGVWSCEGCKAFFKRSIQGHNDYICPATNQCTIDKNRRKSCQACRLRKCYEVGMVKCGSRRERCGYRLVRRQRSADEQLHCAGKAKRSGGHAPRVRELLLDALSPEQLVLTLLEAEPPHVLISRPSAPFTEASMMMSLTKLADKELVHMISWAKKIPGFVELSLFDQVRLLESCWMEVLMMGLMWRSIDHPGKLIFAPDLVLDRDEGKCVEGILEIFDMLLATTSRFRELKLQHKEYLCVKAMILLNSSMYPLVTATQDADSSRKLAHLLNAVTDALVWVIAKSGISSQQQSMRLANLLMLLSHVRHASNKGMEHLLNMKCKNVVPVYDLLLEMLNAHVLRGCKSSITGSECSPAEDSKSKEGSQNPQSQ

endothelial cell = assay: Endothelial cell proliferation in vitro
spleen = assay: Splenomegaly and spleen histology in adjuvant arthritis; format: in vivo, Rat (Lewis)
Protocol: During the course of AA in the rat, splenomegaly is a prominent feature due to splenitis, lymphoid hyperplasia and even abscess formation. Therefore the splenic enlargement in these animals was monitored for any effect of 2ME2 on this parameter. In rats that were treated with vehicle, spleen weights increased dramatically, increasing nearly three-fold.
A histological examination of the spleens was undertaken in the different groups. The appearance of a normal rat spleen (A) and vehicle-treated spleen (B).

COc1cc2c(cc1O)CC[C@@H]1[C@@H]2CC[C@]2(C)[C@@H](O)CC[C@@H]12 [2ME2, 2-methoxyestradiol]
arthritic score ([1]; FIG. 1): decreases | synovial inflammation ([1]; FIG. 2, 100 mg/kg versus control): inhibits | periarticular inflammatory infiltrate and fibrosis ([1]; FIG. 3, 100 mg/kg versus control): inhibition | loss of proteoglycan in articular cartilage and induction of osteoclast activity ([1]; FIG. 4, 100 mg/kg versus control): prevents | severity of RA progression ([1]; FIG. 5): inhibit | percent inhibition of arthritic score ([1]; FIG. 7, 2ME2 in combination with methotrexate): unexpected increase | radiographic assessment ([1]; FIG. 8): radiographic evidence of 2ME2's anti-rheumatic effect | inhibition of clinical arthritic score, inflammation, cartilage degradation, bone resorption, and pannus formation ([1]; Study SMP04-040, 1, 10, 100 mg/kg/d PO, prevention (start 1 day after induction), Panzem NCD formulation): Dose-dependent | inhibition of clinical arthritic score, inflammation, cartilage degradation, bone resorption, and pannus formation ([1]; Study SMP05-009, 100 mg/kg/d, 100 mg/kg/week, 100 mg/kg twice a week PO, prevention): Regimen- | inhibition of clinical arthritic score, inflammation, cartilage degradation, bone resorption, and pannus formation ([1]; Study SMP05-010, 10, 25, 50, 75, 100 mg/kg/d PO, prevention): Dose-dependent | inhibition of clinical arthritic score upon combination of the two drugs ([1]; Study SMP05-046, 2ME2 10 or 100 mg/kg/d PO combined with MTX 0.1 or 1 mg/kg/d IP, prevention): Additive | pathology in the liver ([1]; Study SMP05-046, 2ME2 PO in combination with MTX IP): No pathology | pathology in the liver ([1]; Study SMP05-046, either drug alone (2ME2 10 or 100 mg/kg/d PO; MTX 0.1 or 1 mg/kg/d IP)): No pathology | affinity for estrogen receptor α (estrogen receptor α): low affinity | inhibition of clinical arthritic score, inflammation, and bone destruction [2]: Dose dependent | articular cartilage surfaces and proteoglycan staining ([3]; 100 mg/kg/d initiated at day 6 post-immunization): preservation of articular cartilage surfaces and proteoglycan staining | leukocyte infiltration of the synovium ([3]; 100 mg/kg/d initiated at day 6 post-immunization, compared to vehicle): less intense leukocyte infiltration | cartilage preservation ([3]; treatment delayed to day 10): cartilage preservation was still observed | leukocyte cellularity in the synovium ([3]; treatment delayed to day 10): less noticeably affected | arthritis severity (clinical score) by day 14, mean ([4]; 30 mg/kg/d i.p. initiated day 6 post-immunization): 7.4 | modification of arthritis severity ([4]; 30 mg/kg/d initiated on day 10 post-immunization): did not reach statistical significance | arthritis severity (clinical score) by day 14, mean ([4]; 100 mg/kg/d i.p. initiated day 6 post-immunization): 6.5 | arthritis severity ([4]; 100 mg/kg/d initiated at onset of clinical arthritis, day 10 post-immunization): attenuation of arthritis severity | affinity for estrogen receptor β (estrogen receptor β): low affinity | IC50, endothelial cell proliferation (endothelial cell; optimal serum and endothelial cell growth supplements): approximately 0.5 μg/mL | concentration required for inhibition under optimal versus restricted growth conditions (endothelial cell; optimal serum and growth supplements versus restricted): two-fold higher concentration | pIC50 (endothelial cell; read-out: IC50, endothelial cell proliferation, optimal serum and endothelial cell growth supplements): ~5.82 | concentration giving significant inhibition of endothelial cell proliferation (endothelial cell; restricted serum and growth factor): 0.25 µg/mL | spleen histology (spleen; 30 mg/kg/d from day 6-14 post-immunization, no increase in giant cells or abscess formation, no lymphoid hyperplasia): Only mild splenitis | increase in spleen weight (splenic enlargement) (spleen; 30 mg/kg/d started on day 6 post-immunization): completely inhibited | splenic abscess formation, giant cells, and lymphoid hyperplasia (spleen; Dalhousie Study #1, 30, 100 mg/kg/d PO): Decreased | increase in spleen weight (splenic enlargement) (spleen; high dose (100 mg/kg/d) started on day 6 post-immunization): completely inhibited | splenic enlargement (spleen; treatment initiated at day 10): markedly inhibited
